The values below come from publication PMC10541456, “A phase I, single‐center, open‐label study to investigate the absorption, distribution, metabolism and excretion of encorafenib following a single oral dose of 100 mg [ ^14C] encorafenib in healthy male subjects” (Pharmacology Research & Perspectives, 2023).

Data set [1] can be described thus: Metabolite profiles in plasma (UPLC, radioactivity detection, MS). In kind it is in vivo, human. Here is the method: To the thawed plasma samples (1.5 mL plasma/ time points) two volumes of ice‐cold acetonitrile:ethanol:acetic acid (90:10:0.1, v/v) were added, followed by vortex mixing (10 min) and sonication (10 min). After centrifugation, the supernatants (4.2 mL) were evaporated to near dryness under a gentle stream of nitrogen on a TurboVap LV (Zymark Corp.). The residues were reconstituted in 80 μL of methanol:water:acetic acid (50:50:0.1, v/v) and 45 μL were injected into the ultra‐performance liquid chromatography (UPLC) system with off‐line radioactivity detection.
(§1) Characterization and quantification of the metabolites of encorafenib in select human plasma and excreta samples were performed by the Department of DMPK (Drug Metabolism and Pharmacokinetics) at the Novartis Institutes for Biomedical Research (East Hanover, NJ, USA) using liquid chromatography (LC) coupled to radioactivity detectors and mass spectrometers (MS).
(§2) The analytical system consisted of a Waters ACQUITY UPLC system (Waters), equipped with a Phenomenex Luna PFP column (3 μm, 4.6 × 150 mm) (Phenomenex) and a guard column of the same phase, both maintained at a temperature of 30°C. The mobile phases consisted of 10 mM ammonium acetate containing 0.1% formic acid (v/v) (solvent A) and CH3CN (solvent B). The total run time was 80 min. A linear gradient elution program was used with a flow rate of 1 mL/min as described in Table 1.
(§3) The UPLC effluent was split 4:1, with […] of the total flow introduced to the mass spectrometer for mass spectral analysis and the remaining flow used for radioactivity detection.
For off‐line radioactivity detection, the eluant was collected into 96‐well Lumaplate (Packard Instrument Co) microplates using a Collect Pal fraction collector (Leap Technologies) with a collection time of 10 seconds per well. The LumaPlates were sealed after drying and counted for 10–50 min per well on a Packard Topcount microplate scintillation counter. The structural characterization of metabolites was carried out using the above UPLC profiling method coupled to a two‐channel Z‐spray (LockSprayTM) time‐of‐flight mass spectrometer (Synapt MS). Leucine enkephalin was used as the mass reference standard for exact mass measurements and was delivered via the second spray channel at a flow rate of 5 μL/minute. The mass spectrometer was operated at a resolution of ~10 000 m/ΔmFWHM with spectra being collected from 100 to 1000 amu. The ionization technique employed was positive electrospray. The sprayer voltage was kept at 3100 V and the sampling cone voltage was kept at a potential of 20 V. For the time‐of‐flight MS/MS experiments, trap energies of 25 to 45 eV and transfer energy of 15 eV were used with argon as the collision gas.
(§4) All radioactivity data were transferred to Laura software (version 4.2.2.24, Lab Logic Ltd, UK) to generate and integrate radio‐chromatograms. Radioactive peaks for quantitative analysis were manually selected from the plots. The radioactivity in the region encompassing the beginning and end of the peak was summed. All further calculations were based on radioactivity.
(§5) The percent of radioactivity (%RA) in a particular peak, Z, was calculated as follows in Equation (1): (1) %RAinZ=DPMin PeakZ/totalDPMinallintegrated peaksx100
(§6) The concentration or amount of each component was calculated as % RA (expressed as a fraction) multiplied by the total concentration of radioactivity in plasma, or the percent of dose in the excreta.

The nature of data set [2]: Metabolite profiles in excreta (urine, feces). The data set is classed as in vivo, human. As for the experimental part: A pool of equal percent volume of urine (0–48 h) was prepared for each subject. An aliquot (1.5 mL) of the pooled sample was concentrated ~7‐fold by reducing the volume under nitrogen and then combined with 50 μL methanol:water:acetic acid (50:50:0.1; v/v) followed by centrifugation at 3500 rpm (~1000 × g) for 10 min. The aliquot was then injected onto the UPLC system with off‐line radioactivity detection.
A pool of approximately equal percent by weight of feces (from 0–96 h or 0–120 h) was prepared for each subject. Feces samples were extracted two times with 2 equivalent volumes of acetonitrile: each time with 10 min of vortexing, 10 min of sonication, and centrifugation at 3500 rpm (~1000 × g) for 10 min. An aliquot of the combined supernatant was concentrated approximately 5‐fold by evaporating to dryness under nitrogen and reconstituting in methanol:water:acetic acid (50:50:0.1, v/v) 45 μL of the concentrated, reconstituted samples was injected onto the UPLC system with off‐line radioactivity detection.
as §1, §2, §3
For off‐line radioactivity detection, the eluant was collected into 96‐well Lumaplate (Packard Instrument Co) microplates using a Collect Pal fraction collector (Leap Technologies) with a collection time of 10 seconds per well. The LumaPlates were sealed after drying and counted for 10–50 min per well on a Packard Topcount microplate scintillation counter. The structural characterization of metabolites was carried out using the above UPLC profiling method coupled to a two‐channel Z‐spray (LockSprayTM) time‐of‐flight mass spectrometer (Synapt MS). Leucine enkephalin was used as the mass reference standard for exact mass measurements and was delivered via the second spray channel at a flow rate of 5 μL/minute. […]
as §4, §5, §6

Details of data set [3]: method as in earlier work. To be noted: cited from earlier work.

Consider `COC(=O)N[C@@H](C)CNc1nccc(-c2cn(C(C)C)nc2-c2cc(Cl)cc(NS(C)(=O)=O)c2F)n1` [encorafenib], for which the “Mean (range) Circulating Radioactivity in Plasma Based on AUC0-24” value in data set [1] (100 mg oral [14C] encorafenib) is 4400 (2340–7140) ngEq/mL*h. In addition, the “Mean (range) Circulating Radioactivity in Plasma Based on AUC0-24 (%)” value in data set [1] (M12.8 value is sum of M12.8 and M13.2) is recorded as 27.5%; in data set [1] (M12.8 value is sum of M12.8 and M13.2, listed as Encorafenib (LGX818)) it was 27.5 (17.9–36.4) %. Moreover, the “Component in feces, average” value in data set [2] (feces pool 0–96 h or 0–120 h, average of four subjects) was 5.0 % of the administered radioactive dose. The “Metabolism as clearance pathway, share of the recovered radioactive dose” value in data set [2] (humans) is ~ 88%. Besides, the “CLr as share of the glomerular filtration rate (7.5 L/h)” value in data set [2] (in vivo) was found to be 7%. Besides, the CL renal in data set [2] (male, human, urine and plasma, oral, 100 mg, amount in urine divided by mean plasma AUCinf, read-out: Renal clearance (CLr), estimated mean (converted)) was 8.33 mL/min. Also, in data set [2] (urine pool 0–48 h, average of four subjects), the “Component in urine, average” value is recorded as 1.8 % of the administered radioactive dose. In data set [3] (after a single dose, dose range 50 mg to 700 mg), the “Dose proportionality of systemic exposure” value is “dose‐proportional”. For the same compound, the “Variability of apparent oral clearance, encorafenib labeling” value in data set [3] is on record as 54%.
